Measurements from ChEMBL document CHEMBL6096682, “Discovery of D-Ring-Contracted Artemisinin as a Potent Hydrophobic Tag for Targeted Protein Degradation” (J Med Chem, 2025).
Calls of active or inactive are those of the source. The calls are words filed in the database; no cut-off is given here.

Assays:
[1] = target: T1, Estrogen receptor (Homo sapiens) (UniProt P03372); experiment: HyT degrader activity at ER-alpha in human MCF7 cells assessed as induction of ER-alpha degradation at 10 uM incubated for 24 hrs by western blot analysis; assay type: cell-based
T1 sequence (whole entry): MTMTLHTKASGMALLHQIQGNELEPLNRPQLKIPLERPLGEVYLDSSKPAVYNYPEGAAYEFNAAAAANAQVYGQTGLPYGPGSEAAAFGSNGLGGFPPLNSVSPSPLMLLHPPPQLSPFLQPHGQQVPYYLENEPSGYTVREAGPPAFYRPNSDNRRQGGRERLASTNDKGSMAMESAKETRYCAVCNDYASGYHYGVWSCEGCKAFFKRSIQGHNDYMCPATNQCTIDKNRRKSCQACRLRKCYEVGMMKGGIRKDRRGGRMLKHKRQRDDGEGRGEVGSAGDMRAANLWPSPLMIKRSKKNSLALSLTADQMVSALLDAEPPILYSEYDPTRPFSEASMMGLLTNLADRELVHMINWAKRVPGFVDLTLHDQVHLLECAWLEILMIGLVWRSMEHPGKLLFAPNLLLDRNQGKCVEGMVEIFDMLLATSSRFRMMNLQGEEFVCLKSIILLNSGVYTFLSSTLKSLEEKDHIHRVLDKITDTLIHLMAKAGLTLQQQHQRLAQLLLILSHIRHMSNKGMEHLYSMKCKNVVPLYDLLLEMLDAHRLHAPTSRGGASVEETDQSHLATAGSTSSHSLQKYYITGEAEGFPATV

[2] = target: T1, Estrogen receptor (Homo sapiens); experiment: HyT degrader activity at ER-alpha in human MCF7 cells assessed as induction of ER-alpha degradation by measuring decrease in ER-alpha level at 10 uM incubated for 48 hrs by western blot analysis; assay type: cell-based; design: scale not given: the % may be the effect or the level left
[3] = target: T1, Estrogen receptor (Homo sapiens); experiment: HyT degrader activity at ER-alpha in human MCF7 cells assessed as induction of ER-alpha degradation by measuring decrease in ER-alpha level at 10 uM incubated for 48 hrs followed by drug wash-out and measured after 48 hrs by western blot analysis; assay type: cell-based
[4] = target: Estrogen receptor beta (Homo sapiens) (UniProt Q92731); experiment: Binding affinity to ER-beta in human MCF7 cells at 100 uM incubated for 1 hr followed by exposure to heat at 25 to 66 degC for 3 mins and incubation for 3 mins at room temperature by thermal shift binding assay; assay type: cell-based; details: time 66.0 min
[5] = target: T1, Estrogen receptor (Homo sapiens); experiment: HyT degrader activity at ER-alpha in human MCF7 cells assessed as induction of ER-alpha degradation by measuring residual ER-alpha level at 10 uM incubated for 12 hrs by immunoblot analysis; assay type: cell-based
[6] = target: T1, Estrogen receptor (Homo sapiens); experiment: HyT degrader activity at ER-alpha in human MCF7 cells assessed as induction of ER-alpha degradation by measuring decrease in ER-alpha level at 10 uM pretreated with NAE inhibitor, MLN4924 for 2 hrs followed by incubation with compound for 12 hrs by immunoblot analysis; assay type: cell-based
[7] = target: T1, Estrogen receptor (Homo sapiens); experiment: HyT degrader activity at ER-alpha in human MCF7 cells assessed as induction of ER-alpha degradation by measuring decrease in ER-alpha level at 10 uM pretreated with 26S proteasome inhibitor, MG-132 and NAE inhibitor, MLN4924 for 6 hrs followed by incubation with compound for 24 hrs by immunoblot analysis; assay type: cell-based
MCF7 [8] = experiment: Antiproliferative activity against human MCF7 cells assessed as reduction in cell viability incubated for 48 hrs by MTT assay; assay type: functional, cell-based; details: MCF7, 48 h
MCF7 [9] = experiment: Antiproliferative activity against human MCF7 cells overexpressing EGFR assessed as reduction in cell viability incubated for 48 hrs by MTT assay; assay type: functional, cell-based; details: MCF7, 48 h
MCF7 [10] = experiment: Antiproliferative activity against human MCF7 cells overexpressing EGFR assessed as reduction in cell viability incubated for 48 hrs by MTT assay relative to control; assay type: functional
MCF7 [11] = experiment: Antiproliferative activity against human MCF7 cells overexpressing ER-alpha Y537S mutant assessed as reduction in cell viability incubated for 48 hrs by MTT assay relative to control; assay type: functional
MCF7 [12] = experiment: Antitumor activity against human MCF7 cells xenografted in Balb/c mouse assessed as inhibition of tumor growth at 10 mg/kg, iv administered every 3 days and measured for 21 days; assay type: functional; details: MCF7, 504 h, time 21 day, read-out: TGI
MCF7 [13] = experiment: Antitumor activity against human MCF7 cells xenografted in Balb/c mouse assessed as reduction in tumor weight at 5 to 10 mg/kg, iv administered every 3 days and measured on day 21; assay type: functional, organism-based; details: dose 5-10 mg/kg, time 21.0 day
[14] = Toxicity in Balb/c mouse xenografted with human MCF7 cells assessed as changes in body weight at 5 to 10 mg/kg, iv administered every 3 days and measured for 21 days; assay type: organism-based; details: in vivo, 504 h, dose 5-10 mg/kg, time 21 day
[15] = Toxicity in Balb/c mouse xenografted with human MCF7 cells assessed as effect on lymphocytes count at 5 to 10 mg/kg, iv measured after 24 hrs; assay type: organism-based; details: in vivo, dose 5-10 mg/kg
[16] = Toxicity in Balb/c mouse xenografted with human MCF7 cells assessed as effect on platelets count at 5 to 10 mg/kg, iv measured after 24 hrs; assay type: organism-based; details: in vivo, dose 5-10 mg/kg
[17] = Toxicity in Balb/c mouse xenografted with human MCF7 cells assessed as effect on hemoglobin content at 5 to 10 mg/kg, iv measured after 24 hrs; assay type: organism-based; details: in vivo, dose 5-10 mg/kg
[18] = Toxicity in Balb/c mouse xenografted with human MCF7 cells assessed as effect on hematocrit level at 5 to 10 mg/kg, iv measured after 24 hrs; assay type: organism-based; details: in vivo, dose 5-10 mg/kg
[19] = Nephrotoxicity in Balb/c mouse xenografted with human MCF7 cells assessed as effect on creatinine level in serum at 5 to 10 mg/kg, iv measured after 24 hrs; assay type: toxicity, organism-based; details: in vivo, dose 5-10 mg/kg
[20] = Toxicity in Balb/c mouse xenografted with human MCF7 cells assessed as effect on liver morphological changes at 5 to 10 mg/kg, iv measured after 24 hrs by Hematoxylin-Eosin staining based analysis; assay type: organism-based; details: in vivo, dose 5-10 mg/kg
[21] = Toxicity in Balb/c mouse xenografted with human MCF7 cells assessed as effect on lungs morphological changes at 5 to 10 mg/kg, iv measured after 24 hrs by Hematoxylin-Eosin staining based analysis; assay type: organism-based; details: in vivo, dose 5-10 mg/kg

Sequence of Estrogen receptor beta (Homo sapiens) (Q92731 whole entry): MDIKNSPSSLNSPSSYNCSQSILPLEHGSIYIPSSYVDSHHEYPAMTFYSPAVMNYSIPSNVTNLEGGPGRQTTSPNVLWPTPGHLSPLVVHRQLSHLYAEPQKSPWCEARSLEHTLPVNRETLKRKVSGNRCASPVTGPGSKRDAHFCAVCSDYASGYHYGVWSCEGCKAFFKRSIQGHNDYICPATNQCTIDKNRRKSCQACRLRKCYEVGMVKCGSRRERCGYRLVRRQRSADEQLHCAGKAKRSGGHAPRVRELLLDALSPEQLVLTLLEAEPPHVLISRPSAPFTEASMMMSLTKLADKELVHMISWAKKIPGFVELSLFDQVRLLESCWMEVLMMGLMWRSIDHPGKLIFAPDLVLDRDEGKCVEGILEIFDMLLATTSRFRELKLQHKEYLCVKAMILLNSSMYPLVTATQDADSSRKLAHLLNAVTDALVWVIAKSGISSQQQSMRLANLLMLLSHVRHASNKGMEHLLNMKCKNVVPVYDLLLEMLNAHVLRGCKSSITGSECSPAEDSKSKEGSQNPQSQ

Which Activity [1] does the source give for `C[C@@H]1CCC2[C@]34OO[C@](C)(CCC13)O[C@@H]4O[C@]2(C)C(=O)NCCCOc1ccc(C(=O)c2c(-c3ccc(O)cc3)sc3cc(O)ccc23)cc1` (stereo partly specified) here?
The Activity was 83.1%.

What about the Activity [2] of the same compound?
Its Activity is > 99%.

What about the Activity [3] of the same compound?
The Activity was “Active”.

And the Activity [4]?
Its Activity is “Active; Weak Affinity”.

What about the Activity [5] of the same compound?
The Activity was 23.5%.

What about the Activity [6] of the same compound?
The Activity was “inactive”.

What about the Activity [7] of the same compound?
The Activity was “inactive”.

And the IC50 (MCF7 [8])?
Its IC50 is 2.28 µM.

And the IC50 (MCF7 [9])?
The IC50 was 4.65 µM.

What about the “inhibition (INH)” value (MCF7 [10]) of the same compound?
Its value is 56.7%.

What about the “inhibition (INH)” value (MCF7 [11]) of the same compound?
Its value is 63.6%.

And the inhibition in vivo at 10 mg/kg (MCF7 [12])?
The inhibition in vivo at 10 mg/kg was 112%.

And the Activity (MCF7 [13])?
Its Activity is “Active”.

What about the Activity [14] of the same compound?
The Activity was “Non-toxic”.

And the Activity [15]?
Its Activity is “Non-toxic”.

And the Activity [16]?
The Activity was “Non-toxic”.

What about the Activity [17] of the same compound?
Its Activity is “Non-toxic”.

What about the Activity [18] of the same compound?
Its Activity is “Non-toxic”.

What about the Activity [19] of the same compound?
The Activity was “Non-toxic”.

And the Activity [20]?
Its Activity is “Non-toxic”.

What about the Activity [21] of the same compound?
Its Activity is “Non-toxic”.
